# Molecular target: T1, human Cot catalytic domain (30-397 amino acids) (Homo sapiens, UniProt P41279)
# T1 construct: Purified recombinant human Cot catalytic domain (30-397 amino acids) was purchased from Cama Biosciences; purchased Cama Biosciences (so in the source)
# Assay: High Throughput Cot Biochemical Assay (KinEASE TR-FRET)
# Conditions: Cot KinEASE TR-FRET, 400 μM ATP; read-out: IC50 HTRF
# Experimental: Example 61: High Throughput Cot Biochemical Assay
# In this assay, Cot-catalyzes the phosphorylation of a XL665-labeled peptide substrate. Europium conjugated phospho-tyrosine specific antibody binds the resulting phosphorylated peptide. […] Purified recombinant human Cot catalytic domain (30-397 amino acids) was purchased from Cama Biosciences. […] The standard 5 μL reaction mixture contained 400 μM ATP, 1 μM STK3 peptide, 5 nM of Cot in reaction buffer (10 mM MOPS, pH 7.0, 0.02% NaN3, 0.5 mg/mL BSA, 10 mM MgOAc, 1 mM DTT, 0.025% NP-40, 1.5% glycerol) and 0.1% DMSO.
# T1 sequence (P41279 30-397): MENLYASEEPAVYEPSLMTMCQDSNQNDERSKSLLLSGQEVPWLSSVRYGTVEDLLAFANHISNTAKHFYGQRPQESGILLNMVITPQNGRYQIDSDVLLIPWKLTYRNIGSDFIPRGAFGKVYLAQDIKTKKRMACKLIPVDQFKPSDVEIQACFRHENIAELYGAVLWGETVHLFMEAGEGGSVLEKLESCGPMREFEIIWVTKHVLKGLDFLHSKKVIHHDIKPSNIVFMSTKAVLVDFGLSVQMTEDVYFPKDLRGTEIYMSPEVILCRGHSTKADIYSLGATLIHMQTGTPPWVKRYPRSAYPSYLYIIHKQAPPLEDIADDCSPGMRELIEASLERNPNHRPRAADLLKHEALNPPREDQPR
row,SMILES,IC50
1,"CCN1CCC(n2cc(C(Nc3ccc4ncc(C#N)c(Nc5ccc(F)c(Cl)c5)c4c3)c3ccc(F)cc3)nn2)CC1 (stereo not drawn) [Example 827, 4-((3-chloro-4-fluorophenyl)amino)-6-(((1-(1-ethylpiperidin-4-yl)-1H-1,2,3-triazol-4-yl)(4-fluorophenyl)methyl)amino) quinoline-3-carbonitrile]",34 nM
2,"N#Cc1cnc2ccc(NC(c3ccc(F)cc3)c3cn(C4CCN(C(=O)OCc5ccccc5)CC4)nn3)cc2c1Nc1ccc(F)c(Cl)c1 (stereo not drawn) [Example 834, benzyl 4-(4-(((4-((3-chloro-4-fluorophenyl)amino)-3-cyanoquinolin-6-yl)amino)(4-fluorophenyl)methyl)-1H-1,2,3-triazol-1-yl)piperidine-1-carboxylate]",756 nM
3,"CCN1CCC(n2cc(C(Nc3cc(Cl)c4ncc(C#N)c(Nc5ccc(F)c(Cl)c5)c4c3)c3ccc(F)cc3)nn2)CC1(C)C (stereo not drawn) [Example 838, 8-chloro-4-((3-chloro-4-fluorophenyl)amino)-6-(((1-(1-ethyl-2,2-dimethylpiperidin-4-yl)-1H-1,2,3-triazol-4-yl)(4-fluorophenyl)methyl)amino) quinoline-3-carbonitrile]",32 nM
4,"CC1(C)CNCCC1n1cc(C(Nc2cc(Cl)c3ncc(C#N)c(Nc4ccc(F)c(Cl)c4)c3c2)c2ccc(F)cc2)nn1 (stereo not drawn) [Example 840, 8-chloro-4-((3-chloro-4-fluorophenyl)amino)-6-(((1-(3,3-dimethylpiperidin-4-yl)-1H-1,2,3-triazol-4-yl)(4-fluorophenyl)methyl)amino) quinoline-3-carbonitrile]",84 nM
5,"CC(=O)N1CCC(n2cc(C(Nc3cc(Cl)c4ncc(C#N)c(Nc5ccc(F)c(Cl)c5)c4c3)c3ccc(F)cc3)nn2)CC1 (stereo not drawn) [Example 844, 6-(((1-(1-acetylpiperidin-4-yl)-1H-1,2,3-triazol-4-yl)(4-fluorophenyl)methyl)amino)-8-chloro-4-((3-chloro-4-fluorophenyl)amino)quinoline-3-carbonitrile]",48 nM
6,"N#Cc1cnc2c(Cl)cc(N[C@H](c3ccc(F)cc3)c3cn(C4CCNCC4)nn3)cc2c1Nc1ccc(F)c(Cl)c1 [Example 850, (R)-8-chloro-4-((3-chloro-4-fluorophenyl)amino)-6-(((4-fluorophenyl)(1-(piperidin-4-yl)-1H-1,2,3-triazol-4-yl)methyl)amino)quinoline-3-carbonitrile]",926 nM
7,"N#Cc1cnc2c(Cl)cc(N[C@@H](c3ccc(F)cc3)c3cn(C4CCNCC4)nn3)cc2c1Nc1ccc(F)c(Cl)c1 [Example 851, (S)-8-chloro-4-((3-chloro-4-fluorophenyl)amino)-6-(((4-fluorophenyl)(1-(piperidin-4-yl)-1H-1,2,3-triazol-4-yl)methyl)amino)quinoline-3-carbonitrile]",7 nM
8,"Cn1cc(C(Nc2cc(Cl)c3ncc(C#N)c(Nc4ccc(F)c(Cl)c4)c3c2)c2cccc(CN3CCCC3)c2)nn1 (stereo not drawn) [Example 852, 8-chloro-4-((3-chloro-4-fluorophenyl)amino)-6-(((1-methyl-1H-1,2,3-triazol-4-yl)(3-(pyrrolidin-1-ylmethyl)phenyl)methyl)amino)quinoline-3-carbonitrile]",22 nM
9,"CCN1CCC(n2cc([C@H](Nc3cc(Cl)c4ncc(C#N)c(Nc5ccc(F)c(Cl)c5)c4c3)c3ccc(Cl)cc3)nn2)CC1 [Example 856, (R)-8-chloro-4-((3-chloro-4-fluorophenyl)amino)-6-(((4-chlorophenyl)(1-(1-ethylpiperidin-4-yl)-1H-1,2,3-triazol-4-yl)methyl)amino)quinoline-3-carbonitrile]",860 nM
10,"N#Cc1cnc2c(Cl)cc(NC(c3ccc(F)cc3)c3cn([C@@H]4CCNC4)nn3)cc2c1Nc1ccc(F)c(Cl)c1 (stereo partly drawn) [Example 864, 8-chloro-4-((3-chloro-4-fluorophenyl)amino)-6-(((4-fluorophenyl)(1-((R)-pyrrolidin-3-yl)-1H-1,2,3-triazol-4-yl)methyl)amino)quinoline-3-carbonitrile]",22 nM

# The next lines start with the values.
row,IC50,SMILES
1,90 nM,"N#Cc1cnc2c(Cl)cc(N[C@@H](c3ccc(F)cc3)c3cn(C4CCN(C5CC(F)(F)C5)CC4)nn3)cc2c1Nc1ccc(F)c(Cl)c1 [Example 822, (S)-8-chloro-4-((3-chloro-4-fluorophenyl)amino)-6-(((1-(1-(3,3-difluorocyclobutyl)piperidin-4-yl)-1H-1,2,3-triazol-4-yl)(4-fluorophenyl)methyl)amino) quinoline-3-carbonitrile]"
2,97 nM,"N#Cc1cnc2c(Cl)cc(N[C@@H](c3ccc(F)cc3)c3cn(C4CCN(CC(F)F)CC4)nn3)cc2c1Nc1ccc(F)c(Cl)c1 [Example 823, (S)-8-chloro-4-((3-chloro-4-fluorophenyl)amino)-6-(((1-(1-(2,2-difluoroethyl)piperidin-4-yl)-1H-1,2,3-triazol-4-yl)(4-fluorophenyl)methyl)amino) quinoline-3-carbonitrile]"
3,6 nM,"CN1CCC(n2cc([C@@H](Nc3cc(Cl)c4ncc(C#N)c(Nc5ccc(F)c(Cl)c5)c4c3)c3ccc(F)cc3)nn2)CC1 [Example 826, (S)-8-chloro-4-((3-chloro-4-fluorophenyl)amino)-6-(((4-fluorophenyl)(1-(1-methylpiperidin-4-yl)-1H-1,2,3-triazol-4-yl)methyl)amino)quinoline-3-carbonitrile]"
4,6 nM,"N#Cc1cnc2c(Cl)cc(N[C@@H](c3ccc(F)cc3)c3cn(C4CN5CCC4CC5)nn3)cc2c1Nc1ccc(F)c(Cl)c1 (stereo partly drawn) [Example 829, 8-chloro-4-((3-chloro-4-fluorophenyl)amino)-6-(((1S)-(4-fluorophenyl)(1-(quinuclidin-3-yl)-1H-1,2,3-triazol-4-yl)methyl)amino)quinoline-3-carbonitrile]"
5,363 nM,"CC(C)(C)OC(=O)N1CCC(n2cc([C@@H](Nc3cc(Cl)c4ncc(C#N)c(Nc5ccc(F)c(Cl)c5)c4c3)c3ccc(F)cc3)nn2)CC1 [Example 830, tert-butyl (S)-4-(4-(((8-chloro-4-((3-chloro-4-fluorophenyl)amino)-3-cyanoquinolin-6-yl)amino)(4-fluorophenyl)methyl)-1H-1,2,3-triazol-1-yl)piperidine-1-carboxylate]"
6,9 nM,"CCN1CCC(n2cc(C(Nc3ccc4ncc(C#N)c(Nc5ccc(F)c(Cl)c5)c4c3)c3ccc(F)cc3)nn2)CC1 (stereo not drawn) [Example 832, 4-((3-chloro-4-fluorophenyl)amino)-6-(((1-(1-ethylpiperidin-4-yl)-1H-1,2,3-triazol-4-yl)(4-fluorophenyl)methyl)amino) quinoline-3-carbonitrile]"
7,7 nM,"CCN1CCC(n2cc(C(Nc3cc(Br)c4ncc(C#N)c(Nc5ccc(F)c(Cl)c5)c4c3)c3ccc(F)cc3)nn2)CC1 (stereo not drawn) [Example 833, 8-bromo-4-((3-chloro-4-fluorophenyl)amino)-6-(((1-(1-ethylpiperidin-4-yl)-1H-1,2,3-triazol-4-yl)(4-fluorophenyl)methyl)amino) quinoline-3-carbonitrile]"
8,24 nM,"CC1(C)CC(n2cc(C(Nc3cc(Cl)c4ncc(C#N)c(Nc5ccc(F)c(Cl)c5)c4c3)c3ccc(F)cc3)nn2)CCN1 (stereo not drawn) [Example 839, 8-chloro-4-((3-chloro-4-fluorophenyl)amino)-6-(((1-(2,2-dimethylpiperidin-4-yl)-1H-1,2,3-triazol-4-yl)(4-fluorophenyl)methyl)amino) quinoline-3-carbonitrile]"
9,58 nM,"N#Cc1cnc2c(Cl)cc(NC(c3ccc(F)cc3)c3cn(C4CCOCC4)nn3)cc2c1Nc1ccc(F)c(Cl)c1 (stereo not drawn) [Example 843, 8-chloro-4-((3-chloro-4-fluorophenyl)amino)-6-(((4-fluorophenyl)(1-(tetrahydro-2H-pyran-4-yl)-1H-1,2,3-triazol-4-yl)methyl)amino)quinoline-3-carbonitrile]"
10,99 nM,"CS(=O)(=O)N1CCC(n2cc(C(Nc3cc(Cl)c4ncc(C#N)c(Nc5ccc(F)c(Cl)c5)c4c3)c3ccc(F)cc3)nn2)CC1 (stereo not drawn) [Example 845, 8-chloro-4-((3-chloro-4-fluorophenyl)amino)-6-(((4-fluorophenyl)(1-(1-(methylsulfonyl)piperidin-4-yl)-1H-1,2,3-triazol-4-yl)methyl)amino)quinoline-3-carbonitrile]"
11,> 10000 nM,"Cn1ccc(C(Nc2cc(Cl)c3ncc(C#N)c(Nc4ccc(F)c(Cl)c4)c3c2)c2ccc(F)cc2)n1 (stereo not drawn) [Example 846, 8-chloro-4-((3-chloro-4-fluorophenyl)amino)-6-(((4-fluorophenyl)(1-methy-1-1H-pyrazol-3-yl)methyl)amino)quinoline-3-carbonitrile]"
12,2400 nM,"N#Cc1cnc2c(Cl)cc(NC(c3ccc(F)cc3)c3cn(C4CCN(C(=O)OCc5ccccc5)CC4)nn3)cc2c1Nc1ccc(F)c(Cl)c1 (stereo not drawn) [Example 855, benzyl 4-(4-(((8-chloro-4-((3-chloro-4-fluorophenyl)amino)-3-cyanoquinolin-6-yl)amino)(4-fluorophenyl)methyl)-1H-1,2,3-triazol-1-yl)piperidine-1-carboxylate]"
13,1340 nM,"N#Cc1cnc2c(Cl)cc(N[C@H](c3ccc(Cl)cc3)c3cn(C4CCNCC4)nn3)cc2c1Nc1ccc(F)c(Cl)c1 [Example 857, (R)-8-chloro-4-((3-chloro-4-fluorophenyl)amino)-6-(((4-chlorophenyl)(1-(piperidin-4-yl)-1H-1,2,3-triazol-4-yl)methyl)amino)quinoline-3-carbonitrile]"
14,3960 nM,"N#Cc1cnc2c(Cl)cc(NC(c3ccc(F)cc3)c3cccnc3)cc2c1Nc1ccc(F)c(Cl)c1 (stereo not drawn) [Example 862, 8-chloro-4-((3-chloro-4-fluorophenyl)amino)-6-(((4-fluorophenyl)(pyridin-3-yl)methyl)amino)quinoline-3-carbonitrile]"
